Test results: patent US20250206761A1, “HALOINDOLE MACROCYCLIC COMPOUNDS FOR THE TREATMENT OF CANCER” (Hoffmann-La Roche Inc., priority 2022, published 2025)

Tests used:
[1] = test system: NCI-H358 (ATCC-CRL5807) cells; experiment: Cell viability assay, G12C (NCI-H358); format: cell-based, human; conditions: Homo sapiens; KRAS cell viability, NCI-H358, 72 hrs, Cell Counting Kit-8
Description: (§1) The purpose of this cellular assay was to determine the effects of test compounds on the proliferation of human cancer cell lines NCI-H358 (ATCC-CRL5807) cells, AGS (ATCC-CRL-1739) cells, SW620 (ATCC-CCL-227) over a 3-day treatment period by quantifying the amount of NADPH present at endpoint using Cell Counting Kit-8.
(§2) Cells were seeded at 5,000 cells/well (NCI-H358), 2,000 cells/well (AGS) 2,000 cells/well (SW620) in 96-well assay plates (Corning-3699) and incubated overnight. On the day of the assay, diluted compounds were then added in a final concentration of 0.5% DMSO. After 72 hrs incubation, a tenth of the volume of cell counting kit 8 (Dnjindo-CK04) was added into each well. Read the signal (OD450 minus OD650) using EnVision after 2 hrs incubation. IC50 was determined by fitting a 4-parameter sigmoidal concentration response model.

[2] = test system: AGS (ATCC-CRL-1739) cells; experiment: Cell viability assay, G12D (AGS); format: cell-based, human; conditions: Homo sapiens, KRAS cell viability, 72 hrs, Cell Counting Kit-8
Description: as §1, §2

[3] = test system: SW620 (ATCC-CCL-227); experiment: Cell viability assay, G12V (SW620); format: cell-based, human; conditions: Homo sapiens, SW-620; KRAS cell viability, SW620, 72 hrs, Cell Counting Kit-8
Description: as §1, §2

[4] = target: KRAS G12C-BRAF complex (Homo sapiens (Human), UniProt P01116+P62937, G12C); experiment: KRAS-BRAF with CYPA (500 nM) interaction assay (TR-FRET), G12C; format: biochemical
Description: (§3) In this example, TR-FRET was also used to measure the compound or compound-CYPA dependent disruption of the KRAS G12C-BRAF complex. This protocol was also used to measure disruption of KRAS G12D or KRAS G12V binding to BRAF by a compound of the invention, respectively. In assay buffer containing 25 mM HEPES PH=7.4 (4-(2-hydroxyethyl)-1-piperazineethanesulfonic acid, Thermo, 15630080), 0.002% Tween20, 0.1% BSA, 100 mM NaCl, 5 mM MgCl2, 10 μM GMPPNP (Guanosine 5′-[β,γ-imido]triphosphate trisodium salt hydrate, Sigma, G0635), […] 384-well assay plate at final concentrations of 50 nM, 6.25 nM and 1 nM, respectively. Compound was present in plate wells as a 16-point 3-fold dilution series starting at a final concentration of 10 μM and incubated for 3 hours. A mixture of MAb Anti-6His-XL665 (Cisbio, 61HISXLB) and Mab anti-GST-TB cryptate (Cisbio, 61GSTTLB) was then added at a final concentration of 6.67 nM and 0.21 nM, respectively, and the plate was incubated for an additional 1.5 hours. TR-FRET signal was read on a PHERstar FSX microplate reader (Ex320 nm, Em 665/615 nm). Compounds that facilitate disruption of the KRAS-BRAF complex were identified as those eliciting a decrease in the TR-FRET ratio relative to DMSO control wells.

[5] = target: KRAS G12D binding to BRAF (Homo sapiens (Human), UniProt P01116+P62937, G12D); experiment: KRAS-BRAF with CYPA (500 nM) interaction assay (TR-FRET), G12D; format: biochemical
Description: as §3

[6] = target: KRAS G12V binding to BRAF (Homo sapiens (Human), UniProt P01116+P62937, G12V); experiment: KRAS-BRAF with CYPA (500 nM) interaction assay (TR-FRET), G12V; format: biochemical
Description: In this example, TR-FRET was also used to measure the compound or compound-CYPA dependent disruption of the KRAS G12C-BRAF complex. This protocol was also used to measure disruption of KRAS G12D or KRAS G12V binding to BRAF by a compound of the invention, respectively. In assay buffer containing 25 mM HEPES PH=7.4 (4-(2-hydroxyethyl)-1-piperazineethanesulfonic acid, Thermo, 15630080), 0.002% Tween20, 0.1% BSA, 100 mM NaCl, 5 mM MgCl2, 10 μM GMPPNP (Guanosine 5′-[β,γ-imido]triphosphate trisodium salt hydrate, Sigma, G0635), […], GMPPNP loaded 6His-KRAS proteins, and […], 6.25 nM and 1 nM, respectively. Compound was present in plate wells as a 16-point 3-fold dilution series starting at a final concentration of 10 μM and incubated for 3 hours. A mixture of MAb Anti-6His-XL665 (Cisbio, 61HISXLB) and Mab anti-GST-TB cryptate (Cisbio, 61GSTTLB) was then added at a final concentration of 6.67 nM and 0.21 nM, respectively, and the plate was incubated for an additional 1.5 hours. TR-FRET signal was read on a PHERstar FSX microplate reader (Ex320 nm, Em 665/615 nm). Compounds that facilitate disruption of the KRAS-BRAF complex were identified as those eliciting a decrease in the TR-FRET ratio relative to DMSO control wells.

[7] = test system: phosphorylation of ERK, KRAS G12C in NCJ-H358 cells; experiment: pERK inhibition assay, KRAS G12C; format: cell-based, human; conditions: Homo sapiens, 4 hours
Description: (§4) This assay is to measure the ability of test compounds in inhibiting the phosphorylation of ERK, the downstream signaling of KRAS G12C in NCJ-H358 cells, KRAS G12D in AGS cells, and KRAS G12V in SW620. NCJ-H358 (ATCC-CRL5807) cells, AGS (ATCC-CRL-1739) cells, SW620 (ATCC-CCL-227) cells were all grown and maintained using RPMI-1640 medium (Thermo Fisher Scientific) with 10% fetal bovine serum and 1% penicillin/streptomycin. On the day prior to compound addition, cells were plated in tissue culture-treated 96 well plates (Corning-3699) at a density of 30,000 cell/well, 20,000 cell/well, 30,000 cell/well for NCJ-H358, AGS and SW620 respectively, and allowed for attachment overnight. Diluted compounds were then added in a final concentration of 0.5% DMSO. After 4 hours of incubation, the medium was removed, 100 μL of 4% formaldehyde was added, and the assay plates were incubated at room temperature for 20 minutes. The plates were then washed once with phosphate buffered saline (PBS), and permeabilized with 100 μL of chilled methanol for 10 minutes. Non-specific antibody binding to the plates was blocked using 50 μL 1×BSA blocking buffer (Thermo-37520, 10-fold dilution by Phosphate-Buffered Saline Tween (PBST) for at least 1 hour at room temperature.
(§5) The amount of phosphor-ERK was determined using an antibody specific for phosphorylated form of ERK. Primary antibody (pERK, CST-4370, Cell Signaling Technology) was diluted 1:300 in blocking buffer, with 50 μL aliquoted to each well, and incubated overnight at 4′° C. Cells was washed five times for 5 minutes with PBST. Secondary antibody ([…] anti-rabbit IgG, CST-7074, Cell Signaling Technology) was diluted 1:1000 in blocking buffer, and 50 μL was added to each well and incubated 1-2 hrs at room temperature. Cells was washed 5 times for 5 minutes with PBST, 100 μL TMB ELISA substrate (abcam-ab171523) were added and gently shake for 20 minutes. 50 μL stop solution (abcam-ab171529) were added, and then read the signal (OD450) by EnVision.
(§6) IC50 was determined by fitting a 4-parameter sigmoidal concentration response model.

[8] = test system: phosphorylation of ERK, KRAS G12V in SW620; experiment: pERK inhibition assay, KRAS G12V; format: cell-based, human; conditions: Homo sapiens, SW-620, SW620, 4 hours
Description: as §4, §5, §6

KRAS G12V binding to BRAF, sequence (P01116-2 other isoform, or with tags, fused parts or gaps G12V): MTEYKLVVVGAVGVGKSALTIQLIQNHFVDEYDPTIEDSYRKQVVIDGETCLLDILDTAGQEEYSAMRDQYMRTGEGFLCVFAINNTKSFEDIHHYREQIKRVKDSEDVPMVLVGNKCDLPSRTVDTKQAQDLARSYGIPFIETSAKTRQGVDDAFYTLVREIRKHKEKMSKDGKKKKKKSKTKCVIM
KRAS G12V binding to BRAF, sequence (P62937 whole entry): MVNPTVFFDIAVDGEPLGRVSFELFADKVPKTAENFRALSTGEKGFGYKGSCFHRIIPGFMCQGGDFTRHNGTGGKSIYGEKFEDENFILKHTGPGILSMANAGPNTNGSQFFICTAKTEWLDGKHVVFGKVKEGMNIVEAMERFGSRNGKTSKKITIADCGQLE
KRAS G12C-BRAF complex, sequence (P01116-2 other isoform, or with tags, fused parts or gaps G12C): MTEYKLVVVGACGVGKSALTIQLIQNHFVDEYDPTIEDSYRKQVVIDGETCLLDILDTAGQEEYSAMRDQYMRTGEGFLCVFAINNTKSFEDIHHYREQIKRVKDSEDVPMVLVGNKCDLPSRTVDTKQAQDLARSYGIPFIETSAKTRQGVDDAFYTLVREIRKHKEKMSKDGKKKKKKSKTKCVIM
KRAS G12C-BRAF complex, sequence (P62937 whole entry): as the sequence (P62937 whole entry) above
KRAS G12D binding to BRAF, sequence (P01116-2 other isoform, or with tags, fused parts or gaps G12D): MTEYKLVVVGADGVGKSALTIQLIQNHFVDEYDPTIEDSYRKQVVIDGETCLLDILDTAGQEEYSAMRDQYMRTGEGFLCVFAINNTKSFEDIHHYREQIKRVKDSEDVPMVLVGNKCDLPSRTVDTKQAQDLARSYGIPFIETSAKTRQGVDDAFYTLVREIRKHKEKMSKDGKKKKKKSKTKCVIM
KRAS G12D binding to BRAF, sequence (P62937 whole entry): as the sequence (P62937 whole entry) above

CCn1c(-c2cc(N3CCN(CC(F)(F)F)CC3)cnc2[C@H](C)OC)c2c3cc(c(F)cc31)-c1csc(n1)C[C@H](NC(=O)[C@H](C(C)C)N1CCC3(CCN(C(=O)[C@H](F)Cl)CC3)C1=O)C(=O)N1CCC[C@H](N1)C(=O)OCC(C)(C)C2 (atropisomer, axis not shown; (M)) [Example 39, (2S)-2-[8-[(2R)-2-chloro-2-fluoro-acetyl]-1-oxo-2,8-diazaspiro[4.5]decan-2-yl]-N-[(7S,13S)-21-ethyl-24-fluoro-(20M)-20-[2-[(1S)-1-methoxyethyl]-5-[4-(2,2,2-trifluoroethyl)piperazin-1-yl]-3-pyridyl]-17,17-dimethyl-8,14-dioxo-15-oxa-4-thia-9,21,27,28-tetrazapentacyclo[17.5.2.1^2,5.1^9,13.0^22,26]octacosa-1(25),2,5(28),19,22(26),23-hexaen-7-yl]-3-methyl-butanamide]
IC50 [1]: < 0.001 µM | IC50 [2]: 0.112 µM | IC50 [3]: 0.184 µM | IC50 [4]: 0.104 µM | IC50 [5]: > 10 µM | IC50 [6]: > 10 µM | IC50 [7]: 0.006 µM | IC50 [8]: 0.044 µM

CCn1c(-c2cc(N3CCN(C)CC3)cnc2[C@H](C)OC)c2c3cc(c(F)cc31)-c1csc(n1)C[C@H](NC(=O)[C@@H](COC1CN(C(=O)[C@H](F)Cl)C1)C(C)C)C(=O)N1CCC[C@H](N1)C(=O)OCC(C)(C)C2 (atropisomer, axis not shown; (M)) [Example 40, (2R)-2-[[1-[(2R)-2-chloro-2-fluoro-acetyl]azetidin-3-yl]oxymethyl]-N-[(7S,13S)-21-ethyl-24-fluoro-(20M)-20-[2-[(1S)-1-methoxyethyl]-5-(4-methylpiperazin-1-yl)-3-pyridyl]-17,17-dimethyl-8,14-dioxo-15-oxa-4-thia-9,21,27,28-tetrazapentacyclo[17.5.2.1^2,5.1^9,13.0^22,26]octacosa-1(25),2,5(28),19,22(26),23-hexaen-7-yl]-3-methyl-butanamide]
IC50 [1]: < 0.001 µM | IC50 [2]: 1.11 µM | IC50 [3]: 0.063 µM | IC50 [4]: 0.108 µM | IC50 [5]: > 10 µM | IC50 [6]: > 10 µM | IC50 [7]: 0.01 µM | IC50 [8]: 0.023 µM

CO[C@@H](C)c1ncc(N2CCN(CC(F)(F)F)CC2)cc1-c1c2c3cc(c(F)cc3n1CC(F)(F)F)-c1csc(n1)C[C@H](NC(=O)[C@H](C(C)C)N1CCCC3(CCN(C(=O)[C@H](F)Cl)CC3)C1=O)C(=O)N1CCC[C@H](N1)C(=O)OCC(C)(C)C2 (atropisomer, axis not shown; (M)) [Example 42, (2S)-2-[9-[(2R)-2-chloro-2-fluoro-acetyl]-1-oxo-2,9-diazaspiro[5.5]undecan-2-yl]-N-[(7S,13S)-24-fluoro-(20M)-20-[2-[(1S)-1-methoxyethyl]-5-[4-(2,2,2-trifluoroethyl)piperazin-1-yl]-3-pyridyl]-17,17-dimethyl-8,14-dioxo-21-(2,2,2-trifluoroethyl)-15-oxa-4-thia-9,21,27,28-tetrazapentacyclo[17.5.2.1^2,5.1^9,13.0^22,26]octacosa-1(25),2,5(28),19,22(26),23-hexaen-7-yl]-3-methyl-butanamide]
IC50 [1]: < 0.001 µM | IC50 [2]: 0.044 µM | IC50 [3]: 0.082 µM | IC50 [4]: 0.073 µM | IC50 [5]: 3.97 µM | IC50 [6]: 7.86 µM | IC50 [7]: 0.003 µM | IC50 [8]: 0.024 µM

CO[C@@H](C)c1ncc(N2CCN(CC(F)(F)F)CC2)cc1-c1c2c3cc(c(F)cc3n1CC(F)(F)F)-c1csc(n1)C[C@H](NC(=O)[C@H](C(C)C)N(C)C(=O)C1(F)CCN(C(=O)[C@H](F)Cl)CC1)C(=O)N1CCC[C@H](N1)C(=O)OCC(C)(C)C2 (atropisomer, axis not shown; (M)) [Example 44, 1-[(2R)-2-chloro-2-fluoro-acetyl]-4-fluoro-N-[(1S)-1-[[(7S,13S)-24-fluoro-(20M)-20-[2-[(1S)-1-methoxyethyl]-5-[4-(2,2,2-trifluoroethyl)piperazin-1-yl]-3-pyridyl]-17,17-dimethyl-8,14-dioxo-21-(2,2,2-trifluoroethyl)-15-oxa-4-thia-9,21,27,28-tetrazapentacyclo[17.5.2.1^2,5.1^9,13.0^22,26]octacosa-1(25),2,5(28),19,22(26),23-hexaen-7-yl]carbamoyl]-2-methyl-propyl]-N-methyl-piperidine-4-carboxamide]
IC50 [1]: < 0.001 µM | IC50 [2]: 0.134 µM | IC50 [3]: > 5 µM | IC50 [4]: 0.034 µM | IC50 [5]: 1.34 µM | IC50 [6]: 0.607 µM | IC50 [7]: 0.01 µM | IC50 [8]: 0.044 µM
